Results as given in PubChem BioAssay AID1982 (Sanford-Burnham Center for Chemical Genomics, 2009).
The source made the active and inactive calls. The rule behind the calls is not given here.

Legend:
Assay in all cases: kinase panel binding selectivity, selectivity assay, biochemical, KINOMEscan (AID 1982)
ANKK1 = conditions: KINOMEscan 353-kinase binding panel, qPCR, at 10 µM, active compounds read low
CSK = conditions: KINOMEscan 353-kinase binding panel, qPCR, at 10 µM, active compounds read low
[1] = target: Tyrosine-protein kinase ITK/TSK (Homo sapiens) (UniProt Q08881); conditions: KINOMEscan 353-kinase binding panel, qPCR, at 10 µM, active compounds read low
MRCKB = conditions: KINOMEscan 353-kinase binding panel, qPCR, at 10 µM, active compounds read low
[2] = target: Ribosomal protein S6 kinase alpha-3 (Homo sapiens) (UniProt P51812); conditions: KINOMEscan 353-kinase binding panel, qPCR; RPS6KA3(Kin.Dom.1); at 10 µM; active compounds read low
[3] = target: Serine/threonine-protein kinase 17A (Homo sapiens) (UniProt Q9UEE5); conditions: KINOMEscan 353-kinase binding panel, qPCR; DRAK1; at 10 µM; active compounds read low
MST1 = conditions: KINOMEscan 353-kinase binding panel, qPCR, at 10 µM, active compounds read low
[4] = target: Tyrosine-protein kinase receptor UFO (Homo sapiens) (UniProt P30530); conditions: KINOMEscan 353-kinase binding panel, qPCR; AXL; at 10 µM; active compounds read low
MAP3K4 = conditions: KINOMEscan 353-kinase binding panel, qPCR, at 10 µM, active compounds read low
BRSK2 = conditions: KINOMEscan 353-kinase binding panel, qPCR, at 10 µM, active compounds read low
TGFBR1 = conditions: KINOMEscan 353-kinase binding panel, qPCR, at 10 µM, active compounds read low
BMX = conditions: KINOMEscan 353-kinase binding panel, qPCR, at 10 µM, active compounds read low
PAK4 = conditions: KINOMEscan 353-kinase binding panel, qPCR, at 10 µM, active compounds read low
TNK1 = conditions: KINOMEscan 353-kinase binding panel, qPCR, at 10 µM, active compounds read low
CAMKK1 = conditions: KINOMEscan 353-kinase binding panel, qPCR, at 10 µM, active compounds read low
[5] = target: Serine/threonine-protein kinase PAK 5 (Homo sapiens) (UniProt Q9P286); conditions: KINOMEscan 353-kinase binding panel, qPCR; PAK7/PAK5; at 10 µM; active compounds read low
PIK3CG = conditions: KINOMEscan 353-kinase binding panel, qPCR, at 10 µM, active compounds read low
YANK3 = conditions: KINOMEscan 353-kinase binding panel, qPCR, at 10 µM, active compounds read low
TNNI3K = conditions: KINOMEscan 353-kinase binding panel, qPCR, at 10 µM, active compounds read low
EPHA4 = conditions: KINOMEscan 353-kinase binding panel, qPCR, at 10 µM, active compounds read low
PIK3CD = conditions: KINOMEscan 353-kinase binding panel, qPCR, at 10 µM, active compounds read low
[6] = target: Vascular endothelial growth factor receptor 2 (Homo sapiens) (UniProt P35968); conditions: KINOMEscan 353-kinase binding panel, qPCR; VEGFR2; at 10 µM; active compounds read low
MAP4K3 = conditions: KINOMEscan 353-kinase binding panel, qPCR, at 10 µM, active compounds read low
[7] = target: Calcium/calmodulin-dependent protein kinase type 1D (Homo sapiens) (UniProt Q8IU85); conditions: KINOMEscan 353-kinase binding panel, qPCR; CAMK1D; at 10 µM; active compounds read low
[8] = target: 3-phosphoinositide-dependent protein kinase 1 (Homo sapiens) (UniProt O15530); conditions: KINOMEscan 353-kinase binding panel, qPCR; PDPK1; at 10 µM; active compounds read low
SgK085 = conditions: KINOMEscan 353-kinase binding panel, qPCR, at 10 µM, active compounds read low
CDK3 = conditions: KINOMEscan 353-kinase binding panel, qPCR, at 10 µM, active compounds read low
[9] = target: Mitogen-activated protein kinase 1 (Homo sapiens) (UniProt P28482); conditions: KINOMEscan 353-kinase binding panel, qPCR; ERK2; at 10 µM; active compounds read low
[10] = target: Phosphorylase b kinase gamma catalytic chain, liver/testis isoform (Homo sapiens) (UniProt P15735); conditions: KINOMEscan 353-kinase binding panel, qPCR; PHKG2; at 10 µM; active compounds read low
[11] = target: Serine/threonine-protein kinase BRSK1 (Homo sapiens) (UniProt Q8TDC3); conditions: KINOMEscan 353-kinase binding panel, qPCR, at 10 µM, active compounds read low
[12] = target: RAC-beta serine/threonine-protein kinase (Homo sapiens) (UniProt P31751); conditions: KINOMEscan 353-kinase binding panel, qPCR; AKT2; at 10 µM; active compounds read low
[13] = target: Serine/threonine-protein kinase SIK2 (Homo sapiens) (UniProt Q9H0K1); conditions: KINOMEscan 353-kinase binding panel, qPCR; SNF1LK2; at 10 µM; active compounds read low
[14] = target: Mitogen-activated protein kinase kinase kinase 20 (Homo sapiens) (UniProt Q9NYL2); conditions: KINOMEscan 353-kinase binding panel, qPCR; ZAK; at 10 µM; active compounds read low
[15] = target: Proto-oncogene tyrosine-protein kinase receptor Ret (Homo sapiens) (UniProt P07949); conditions: KINOMEscan 353-kinase binding panel, qPCR, at 10 µM, active compounds read low
CSNK1E = conditions: KINOMEscan 353-kinase binding panel, qPCR, at 10 µM, active compounds read low
BMPR2 = conditions: KINOMEscan 353-kinase binding panel, qPCR, at 10 µM, active compounds read low

Chain of Proto-oncogene tyrosine-protein kinase receptor Ret (Homo sapiens) (P07949 whole entry, looked up): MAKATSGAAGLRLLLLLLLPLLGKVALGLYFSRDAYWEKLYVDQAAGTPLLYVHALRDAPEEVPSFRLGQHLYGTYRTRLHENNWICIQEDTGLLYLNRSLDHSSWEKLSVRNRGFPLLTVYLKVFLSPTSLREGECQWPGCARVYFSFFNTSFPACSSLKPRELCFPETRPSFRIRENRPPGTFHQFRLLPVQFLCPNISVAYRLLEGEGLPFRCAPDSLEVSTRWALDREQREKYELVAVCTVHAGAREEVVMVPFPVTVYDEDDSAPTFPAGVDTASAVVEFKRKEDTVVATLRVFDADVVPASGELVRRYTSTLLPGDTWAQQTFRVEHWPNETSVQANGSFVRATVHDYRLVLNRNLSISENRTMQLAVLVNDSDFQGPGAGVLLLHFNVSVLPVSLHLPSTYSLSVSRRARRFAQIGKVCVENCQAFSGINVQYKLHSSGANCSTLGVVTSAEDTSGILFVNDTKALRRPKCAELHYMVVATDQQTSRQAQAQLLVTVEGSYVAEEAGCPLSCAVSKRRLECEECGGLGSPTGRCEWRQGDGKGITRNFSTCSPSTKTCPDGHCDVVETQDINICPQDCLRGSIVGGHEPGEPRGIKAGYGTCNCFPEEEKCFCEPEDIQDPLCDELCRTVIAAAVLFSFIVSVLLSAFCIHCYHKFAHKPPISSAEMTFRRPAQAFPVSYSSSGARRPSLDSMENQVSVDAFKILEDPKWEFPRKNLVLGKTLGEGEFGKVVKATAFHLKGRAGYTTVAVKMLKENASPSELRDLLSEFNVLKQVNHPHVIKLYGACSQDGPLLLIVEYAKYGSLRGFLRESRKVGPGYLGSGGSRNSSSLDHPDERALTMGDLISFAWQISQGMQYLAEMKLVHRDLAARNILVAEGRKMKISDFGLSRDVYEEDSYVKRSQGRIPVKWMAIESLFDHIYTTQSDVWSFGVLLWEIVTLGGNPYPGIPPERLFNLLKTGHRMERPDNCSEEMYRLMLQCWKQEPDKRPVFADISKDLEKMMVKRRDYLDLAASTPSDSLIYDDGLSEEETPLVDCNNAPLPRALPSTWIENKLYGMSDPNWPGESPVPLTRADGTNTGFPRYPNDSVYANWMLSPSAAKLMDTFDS
Chain of Serine/threonine-protein kinase BRSK1 (Homo sapiens) (Q8TDC3 whole entry, looked up): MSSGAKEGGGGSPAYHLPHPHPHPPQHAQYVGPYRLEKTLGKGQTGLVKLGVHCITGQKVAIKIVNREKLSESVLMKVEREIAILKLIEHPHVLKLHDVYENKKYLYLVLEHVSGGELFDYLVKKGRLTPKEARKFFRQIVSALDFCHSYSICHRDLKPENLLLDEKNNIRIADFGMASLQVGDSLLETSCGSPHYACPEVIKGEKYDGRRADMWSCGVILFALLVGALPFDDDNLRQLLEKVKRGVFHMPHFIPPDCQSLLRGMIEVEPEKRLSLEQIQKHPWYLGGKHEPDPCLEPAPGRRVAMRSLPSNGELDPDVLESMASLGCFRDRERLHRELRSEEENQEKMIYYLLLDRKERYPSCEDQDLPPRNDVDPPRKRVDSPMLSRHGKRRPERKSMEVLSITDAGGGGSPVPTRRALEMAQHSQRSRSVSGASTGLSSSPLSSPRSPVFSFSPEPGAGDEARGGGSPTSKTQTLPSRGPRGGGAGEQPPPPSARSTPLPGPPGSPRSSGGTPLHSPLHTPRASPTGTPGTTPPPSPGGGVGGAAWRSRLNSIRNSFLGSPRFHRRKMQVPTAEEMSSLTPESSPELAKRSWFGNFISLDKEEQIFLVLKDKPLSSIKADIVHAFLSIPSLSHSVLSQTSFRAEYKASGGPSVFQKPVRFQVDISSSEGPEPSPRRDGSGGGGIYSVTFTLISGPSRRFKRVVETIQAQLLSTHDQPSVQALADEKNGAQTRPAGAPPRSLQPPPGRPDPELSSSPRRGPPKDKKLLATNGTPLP
Chain of Tyrosine-protein kinase receptor UFO (Homo sapiens) (P30530 whole entry, looked up): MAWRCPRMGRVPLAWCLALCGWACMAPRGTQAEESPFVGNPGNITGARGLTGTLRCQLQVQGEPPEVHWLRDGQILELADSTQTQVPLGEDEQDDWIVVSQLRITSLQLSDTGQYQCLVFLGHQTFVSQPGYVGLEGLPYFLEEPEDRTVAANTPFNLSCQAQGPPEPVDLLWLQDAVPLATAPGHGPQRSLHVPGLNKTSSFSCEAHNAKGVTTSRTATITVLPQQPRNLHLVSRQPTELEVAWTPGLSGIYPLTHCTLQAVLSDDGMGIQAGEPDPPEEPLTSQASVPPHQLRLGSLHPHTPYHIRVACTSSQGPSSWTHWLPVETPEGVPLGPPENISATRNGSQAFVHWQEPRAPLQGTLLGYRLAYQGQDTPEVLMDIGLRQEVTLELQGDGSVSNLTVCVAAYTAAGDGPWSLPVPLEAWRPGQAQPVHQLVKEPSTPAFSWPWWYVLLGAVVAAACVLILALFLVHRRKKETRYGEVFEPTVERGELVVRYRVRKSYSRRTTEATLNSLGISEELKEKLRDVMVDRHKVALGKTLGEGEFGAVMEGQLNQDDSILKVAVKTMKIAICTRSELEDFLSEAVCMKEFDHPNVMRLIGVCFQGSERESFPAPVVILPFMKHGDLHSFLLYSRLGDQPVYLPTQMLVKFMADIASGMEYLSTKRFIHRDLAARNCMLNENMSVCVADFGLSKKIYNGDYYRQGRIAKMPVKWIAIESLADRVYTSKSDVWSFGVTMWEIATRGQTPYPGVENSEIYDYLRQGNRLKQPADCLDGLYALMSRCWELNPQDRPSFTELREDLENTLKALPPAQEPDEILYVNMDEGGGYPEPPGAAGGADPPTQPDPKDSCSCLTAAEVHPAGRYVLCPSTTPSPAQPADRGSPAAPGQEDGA
Chain of Phosphorylase b kinase gamma catalytic chain, liver/testis isoform (Homo sapiens) (P15735 whole entry, looked up, canonical isoform): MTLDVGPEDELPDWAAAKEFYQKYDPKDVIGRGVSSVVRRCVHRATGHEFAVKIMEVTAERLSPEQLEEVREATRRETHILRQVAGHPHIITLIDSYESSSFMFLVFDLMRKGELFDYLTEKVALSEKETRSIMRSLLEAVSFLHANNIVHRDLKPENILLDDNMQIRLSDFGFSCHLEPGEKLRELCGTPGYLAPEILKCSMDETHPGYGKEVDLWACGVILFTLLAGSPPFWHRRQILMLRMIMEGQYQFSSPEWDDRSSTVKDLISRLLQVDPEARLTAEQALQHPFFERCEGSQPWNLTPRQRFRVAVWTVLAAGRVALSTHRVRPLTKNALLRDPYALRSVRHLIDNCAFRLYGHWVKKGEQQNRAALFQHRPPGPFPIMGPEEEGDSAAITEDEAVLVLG
Chain of Ribosomal protein S6 kinase alpha-3 (Homo sapiens) (P51812 whole entry, looked up): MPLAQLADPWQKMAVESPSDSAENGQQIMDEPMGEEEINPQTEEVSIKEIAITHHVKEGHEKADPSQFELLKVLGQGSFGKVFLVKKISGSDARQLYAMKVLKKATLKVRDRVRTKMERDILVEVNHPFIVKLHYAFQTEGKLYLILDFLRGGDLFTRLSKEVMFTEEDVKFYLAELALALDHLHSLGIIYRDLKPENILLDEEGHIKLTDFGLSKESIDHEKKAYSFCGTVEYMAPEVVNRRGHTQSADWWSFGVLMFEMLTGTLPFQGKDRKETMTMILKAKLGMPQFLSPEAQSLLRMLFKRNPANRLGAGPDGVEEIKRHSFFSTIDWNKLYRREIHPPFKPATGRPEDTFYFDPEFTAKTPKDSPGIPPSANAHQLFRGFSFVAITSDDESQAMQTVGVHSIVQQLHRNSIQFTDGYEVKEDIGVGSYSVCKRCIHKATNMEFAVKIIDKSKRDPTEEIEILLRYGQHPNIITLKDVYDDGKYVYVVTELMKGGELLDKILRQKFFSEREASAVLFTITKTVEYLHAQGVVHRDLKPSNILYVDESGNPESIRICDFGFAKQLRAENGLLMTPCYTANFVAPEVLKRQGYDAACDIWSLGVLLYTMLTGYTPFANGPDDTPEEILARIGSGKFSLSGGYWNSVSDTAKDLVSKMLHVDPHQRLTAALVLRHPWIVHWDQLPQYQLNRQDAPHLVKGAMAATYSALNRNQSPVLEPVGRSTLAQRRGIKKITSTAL
Chain of 3-phosphoinositide-dependent protein kinase 1 (Homo sapiens) (O15530 whole entry, looked up): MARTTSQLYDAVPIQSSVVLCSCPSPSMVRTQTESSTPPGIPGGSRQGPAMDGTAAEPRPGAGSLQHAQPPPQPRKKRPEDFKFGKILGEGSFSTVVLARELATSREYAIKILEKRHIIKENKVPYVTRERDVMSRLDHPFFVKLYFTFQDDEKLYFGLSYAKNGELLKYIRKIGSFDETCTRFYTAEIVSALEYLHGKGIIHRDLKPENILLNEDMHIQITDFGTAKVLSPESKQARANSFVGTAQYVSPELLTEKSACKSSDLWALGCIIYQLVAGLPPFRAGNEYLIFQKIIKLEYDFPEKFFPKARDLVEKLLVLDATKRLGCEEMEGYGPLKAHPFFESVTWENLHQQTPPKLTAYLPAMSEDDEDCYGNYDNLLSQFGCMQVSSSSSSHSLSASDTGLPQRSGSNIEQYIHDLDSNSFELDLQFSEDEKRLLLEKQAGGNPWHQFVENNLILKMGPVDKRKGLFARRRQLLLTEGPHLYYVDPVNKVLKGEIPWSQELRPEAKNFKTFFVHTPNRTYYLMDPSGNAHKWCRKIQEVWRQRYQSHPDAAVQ
Chain of Serine/threonine-protein kinase 17A (Homo sapiens) (Q9UEE5 whole entry, looked up): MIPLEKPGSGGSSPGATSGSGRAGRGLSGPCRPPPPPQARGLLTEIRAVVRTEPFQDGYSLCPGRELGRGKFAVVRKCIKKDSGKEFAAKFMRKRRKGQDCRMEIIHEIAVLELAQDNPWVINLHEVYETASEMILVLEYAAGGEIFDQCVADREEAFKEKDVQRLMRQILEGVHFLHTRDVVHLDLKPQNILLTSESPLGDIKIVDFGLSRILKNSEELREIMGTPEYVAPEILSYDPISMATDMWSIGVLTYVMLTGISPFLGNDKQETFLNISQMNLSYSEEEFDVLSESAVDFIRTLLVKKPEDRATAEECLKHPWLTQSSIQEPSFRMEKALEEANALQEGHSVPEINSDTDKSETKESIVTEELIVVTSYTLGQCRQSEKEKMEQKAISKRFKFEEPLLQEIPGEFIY

percent of control binding (ANKK1): 100% (inactive) | percent of control binding (CSK): 100% (inactive) | percent of control binding [1]: 100% (inactive) | percent of control binding (MRCKB): 100% (inactive) | percent of control binding [2]: 92% (inactive) | percent of control binding [3]: 89% (inactive) | percent of control binding (MST1): 90% (inactive) | percent of control binding [4]: 84% (inactive) | percent of control binding (MAP3K4): 90% (inactive) | percent of control binding (BRSK2): 100% (inactive) | percent of control binding (TGFBR1): 92% (inactive) | percent of control binding (BMX): 84% (inactive) | percent of control binding (PAK4): 92% (inactive) | percent of control binding (TNK1): 80% (inactive) | percent of control binding (CAMKK1): 78% (inactive) | percent of control binding [5]: 79% (inactive) | percent of control binding (PIK3CG): 86% (inactive) | percent of control binding (YANK3): 100% (inactive) | percent of control binding (TNNI3K): 82% (inactive) | percent of control binding (EPHA4): 86% (inactive) | percent of control binding (PIK3CD): 65% (inactive) | percent of control binding [6]: 88% (inactive) | percent of control binding (MAP4K3): 100% (inactive) | percent of control binding [7]: 100% (inactive) | percent of control binding [8]: 95% (inactive) | percent of control binding (SgK085): 99% (inactive) | percent of control binding (CDK3): 82% (inactive) | percent of control binding [9]: 89% (inactive) | percent of control binding [10]: 100% (inactive) | percent of control binding [11]: 100% (inactive) | percent of control binding [12]: 85% (inactive) | percent of control binding [13]: 100% (inactive) | percent of control binding [14]: 93% (inactive) | percent of control binding [15]: 97% (inactive) | percent of control binding ([15]; RET(M918T)): 100% (inactive) | percent of control binding ([15]; RET(V804L)): 100% (inactive) | percent of control binding ([15]; RET(V804M)): 99% (inactive) | percent of control binding (CSNK1E): 96% (inactive) | percent of control binding (BMPR2): 64% (inactive)
Structure (SMILES): Cc1cc2nc(NCCCO)n(CC(=O)c3cc(C(C)(C)C)c(O)c(C(C)(C)C)c3)c2cc1C
